Where two headings read alike, the source gives them in different places.

These results are taken from patent publication US11203577B2, “Sulfonyl-structure-containing triazinone derivatives, their preparation methods and their uses in insect killing and/or bacterium killing” (Nankai University, priority 2017, dated 2021).

In data set [1] the test system is Cucumber fusarium wilt. The data set is described as follows: In vitro fungicidal activity, PDA colony diameter. It is filed as cell-based. The settings on record: 96 h, 50 mg/kg, inhibition of colony diameter, read-out: Fungicidal activity (%) Cucumber fusarium wilt.
The test system of data set [2] is Cercospora brown spot of peanut. The data set is described as follows: In vitro fungicidal activity, PDA colony diameter. It is filed as cell-based. The following applies: 96 h, 50 mg/kg, inhibition of colony diameter, read-out: Fungicidal activity (%) Cercospora brown spot of peanut.
In data set [3] the test system is Tomato early blight. The data set is described as follows: In vitro fungicidal activity, PDA colony diameter. It is filed as cell-based, Alternaria solani. The settings on record: 50 mg/kg, inhibition of colony diameter; read-out: Fungicidal activity (%) Tomato early blight.
Data set [4] relates to Wheat head blight. The data set can be described thus: whole plant or invertebrate. It is filed as cell-based. The settings on record: Triticum aestivum, read-out: Fungicidal activity (%) Wheat head blight.
The subject of data set [5] is Rice bakanae disease. The data set can be described thus: In vitro fungicidal activity, PDA colony diameter. The following applies: read-out: Fungicidal activity (%) Rice bakanae disease. The class given is cell-based.
Data set [6] relates to Sclerotinia rot of colza. The data set is described as follows: In vitro fungicidal activity, PDA colony diameter. It is filed as cell-based. The settings on record: 96 h, 50 mg/kg, inhibition of colony diameter, read-out: Fungicidal activity (%) Sclerotinia rot of colza.
The subject of data set [7] is Apple ring rot. The data set can be described thus: In vitro fungicidal activity, PDA colony diameter. The class given is cell-based. The settings on record: inhibition of colony diameter. The procedure:
(§1) Here, the test is described in an example of Alternaria solani; it can be replaced by other fungi.
(§2) In vitro testing method: Alternaria solani is inoculated to a PDA culture medium and cultured for 7 days, a fungus dish with a diameter of […] is prepared on the periphery of the colony with a punch and inoculated to a PDA culture medium that contains pesticide at a concentration of 50 mg/kg and a PDA culture medium that doesn't contain the pesticide, and are cultured for 4 days respectively; then, the colony diameters are measured, and the inhibition percentages of the pesticides are calculated by comparing with the control sample.

Data set [8] deals with Capsicum phytophthora blight. The data set is described as follows: In vitro fungicidal activity, PDA colony diameter. The class given is cell-based. The following applies: 96 h. How it is done:
as §1, §2

For data set [9], the system named is Wheat sheath blight. The data set is described as follows: In vitro fungicidal activity, PDA colony diameter. The class given is cell-based. The following applies: 50 mg/kg, inhibition of colony diameter; read-out: Fungicidal activity (%) Wheat sheath blight.
In data set [10] the test system is Corn southern leaf blight. The data set is described as follows: In vitro fungicidal activity, PDA colony diameter. The following applies: 50 mg/kg, inhibition of colony diameter; read-out: Fungicidal activity (%) Corn southern leaf blight. The class given is cell-based.
Data set [11] deals with Watermelon anthracnose. The data set is described as follows: In vitro fungicidal activity, PDA colony diameter. It is filed as cell-based. The following applies: 50 mg/kg, inhibition of colony diameter; read-out: Fungicidal activity (%) Watermelon anthracnose.
The test system of data set [12] is Potato late blight. The data set is described as follows: microbe, parasite or virus in culture. The class given is cell-based. The settings on record: Phytophthora infestans, 96 h, read-out: Fungicidal activity (%) Potato late blight.
For data set [13], the system named is Rice sheath blight. The data set is described as follows: In vitro fungicidal activity, PDA colony diameter. The following applies: 50 mg/kg, inhibition of colony diameter; read-out: Fungicidal activity (%) Rice sheath blight. The class given is cell-based.
The subject of data set [14] is Armyworms. The data set is described as follows: Test of insecticidal activity against armyworms (leaf immersion). The settings on record: 3-4 days.
Data set [15] concerns Maize borers. The data set can be described thus: Test of insecticidal activity against maize borers (leaf immersion). The settings on record: read-out: Mortalities (%) Maize borers.
For data set [16], the system named is mosquito larvae (Culer pipiens pallens). The data set can be described thus: Test of insecticidal activity against mosquito larvae (checked after 24 h).
Experimental: Method of testing against mosquito larvae: the tested mosquito larvae are Culer pipiens pallens, a normal colony fed indoor. About 5 mg compound to be tested is weighed and loaded into a penicillin vial, 5 mL acetone (or an appropriate solvent) is added into the vial, and the vial is oscillated to dissolve the compound; thus, 1,000 ppm mother liquid is obtained. 1 mL mother liquid is weighed and added into a 100 mL beaker filled with 89 mL water, 10 mosquito larvae in the early stage of the 4th instar together with 10 mL feeding solution are poured into the beaker; thus, the concentration of the pesticide solution is 10 ppm (the pesticide solutions with other concentrations are attained by diluting the mother liquid by corresponding times). […] Water solution that contains 0.5 mL test solvent is used as a blank sample.
The subject of data set [17] is bean aphides (Aphis laburni Kaltenbach). The data set is described as follows: Test of insecticidal activity against aphides (leaf immersion, checked after 96 h). The settings on record: for mortality at 100 mg/kg / mortality at 600 mg/kg / mortality at 5 mg/kg / mortality at 10 mg/kg: Aphis, 96 h, read-out: Mortalities (%) against aphides; for insecticidal activity against aphides compared with pymetrozine: 5 mg/kg.

For data set [18], the system named is Cotton bollworms. The data set is described as follows: Test of insecticidal activity against cotton bollworms (pesticide mixed into feedstuff). The settings on record: read-out: Mortalities (%) Cotton bollworms.
Experimental: Method of testing against cotton bollworms: the pesticide is mixed into the feedstuff, i.e., 3 mL prepared solution is added into about 27 g freshly prepared feedstuff; thus, required concentration is obtained by diluting by 10 times.
Where [19] appears, read: 50 mg/kg, inhibition of colony diameter.
Where [20] appears, read: 24 h, read-out: Mortalities (%) against mosquito larvae.

Take `CC(=O)Nc1ccc(S(=O)(=O)N(N2CC(C)=NNC2=O)S(=O)(=O)c2ccc(NC(C)=O)cc2)cc1` [Ib-8, 4-acetamido-N-(6-methyl-3-oxo-2,3-dihydro-1,2,4-triazin-4(5H)-yl)-N-(4-acetamidobenzenesulfonyl)-benzenesulfonamide]: the inhibition of growth at 50 mg/kg was 0% in data set [1]; 15.8% in data set [2]; 33.3% in data set [6]; 20.4% in data set [8]; 29.6% in data set [12]. Moreover, the inhibition at 50 mg/kg in [3] was 23.8%; in [4], 0%; in [5] (setting [19]), 22.2%; in [7] it was 27.6%; in data set [9] it was 45.5%; in data set [10], 16.7%. The inhibition at 50 mg/kg in data set [11] turned out to be 12.5%; in data set [13], 27%. Besides, the “Mortalities (%) Armyworms” value in data set [14] (600 mg/kg) was 20%. Further, the mortality at 600 mg/kg in [15] is 15%; in data set [17] it was 90%; in data set [18] it was 15%. Moreover, the mortality at 10 mg/kg in data set [16] (setting [20]) amounted to 30%. The mortality at 100 mg/kg in data set [17] stood at 50%.

`CC1=NNC(=O)N(NS(=O)(=O)c2ccccc2)C1` [Ia-9, N-(6-methyl-3-oxo-2,3-dihydro-1,2,4-triazin-4(5H)-yl)-benzenesulfonamide]: the inhibition of growth at 50 mg/kg in data set [1] amounted to 0%; in [2], 15.8%; in [6], 40%; in data set [8], 26.5%; in [12] it was 22.2%. The inhibition at 50 mg/kg in data set [3] was found to be 9.5%; in [4] it was 0%; in [5] it was 22.2%; in data set [7] it was 24.1%; in data set [9], 40.9%; in [10] it was 12.5%. Moreover, the inhibition at 50 mg/kg came to 12.5% in [11] and 50.8% in data set [13]. Also, in data set [14] (600 mg/kg), the “Mortalities (%) Armyworms” value was found to be 35%. Further, the mortality at 600 mg/kg in [15] came to 25%; in data set [17], 100%; in data set [18], 30%. For the same compound, in data set [16] (setting [20]), the mortality at 2 mg/kg was 10%. The mortality at 5 mg/kg in data set [16] (setting [20]) was determined as 80%; in [17], 30%. The mortality at 10 mg/kg in [16] (setting [20]) and in data set [17] was 100% in each case. Besides, the “insecticidal activity against aphides compared with pymetrozine” value in [17] was “equivalent to the insecticidal activity of pymetrozine”. Besides, the mortality at 100 mg/kg in [17] was found to be 100%.

Consider `CC1=NNC(=O)N(NS(=O)(=O)c2ccc(Br)cc2)C1` [Ia-22, 4-bromo-N-(6-methyl-3-oxo-2,3-dihydro-1,2,4-triazin-4(5H)-yl)-benzenesulfonamide], for which the inhibition of growth at 50 mg/kg in [1] turned out to be 14.7%; in [2], 16%; in data set [6], 21%; in data set [8], 27.8%; in data set [12] it was 25%. For the same compound, the inhibition at 50 mg/kg in data set [3] was 6%; in data set [4], 16.2%; in data set [5] (setting [19]), 17.2%; in data set [7], 37.8%; in [9] it was 8.7%; in [10] it was 3.1%. For the same compound, the inhibition at 50 mg/kg in [11] was determined as 56.3%; in data set [13], 23.2%. In addition, the “Mortalities (%) Armyworms” value in data set [14] (200 mg/kg) was 70%; in data set [14] (600 mg/kg) it was 100%. Further, the mortality at 200 mg/kg in [15] was determined as 65%; in data set [18], 80%. The mortality at 600 mg/kg in data set [15], in data set [17] and in data set [18] was 100% each time. Moreover, the mortality at 0.5 mg/kg in data set [16] (setting [20]) amounted to 40%. For the same compound, the mortality at 1 mg/kg in data set [16] (setting [20]) was found to be 100%. Also, in data set [16] (setting [20]), the mortality at 2 mg/kg is 100%. Further, the mortality at 5 mg/kg in [16] (setting [20]) stood at 100%; in [17] it was 40%. For the same compound, the mortality at 10 mg/kg in data set [16] (setting [20]) and in [17] was 100% each time. In data set [16] (in vivo), the “insecticidal activity against mosquito larvae” value is reported as “relatively high insecticidal activity”. Also, the “insecticidal activity against aphides compared with pymetrozine” value in data set [17] is reported as “equivalent to the insecticidal activity of pymetrozine”. For the same compound, the mortality at 100 mg/kg in data set [17] is 100%.

`CC1=NNC(=O)N(NS(=O)(=O)c2ccc(Cl)cc2)C1` [Ia-21, 4-chloro-N-(6-methyl-3-oxo-2,3-dihydro-1,2,4-triazin-4(5H)-yl)-benzenesulfonamide]: the inhibition of growth at 50 mg/kg in [1] turned out to be 5.9%; in [2], 12%; in data set [6] it was 26.3%; in data set [8], 25%; in [12] it was 18.7%. For the same compound, the inhibition at 50 mg/kg in [3] worked out at 6%; in data set [4] it was 16.2%; in data set [5] (setting [19]), 24.1%; in data set [7], 8.1%; in [9] it was 14.3%; in data set [10], 15.6%. Also, the inhibition at 50 mg/kg in [11] amounted to 24.6%; in data set [13], 11.6%. Besides, the “Mortalities (%) Armyworms” value in data set [14] (600 mg/kg) was found to be 75%. The mortality at 600 mg/kg in data set [15] is 60%; in data set [17], 100%; in data set [18] it was 50%. Further, in data set [16] (setting [20]), the mortality at 2 mg/kg turned out to be 40%. The mortality at 5 mg/kg in data set [16] (setting [20]) turned out to be 100%; in data set [17], 35%. Further, the results for the mortality at 10 mg/kg in [16] (setting [20]) and in [17] were 100% and 85%, respectively. In data set [17], the “insecticidal activity against aphides compared with pymetrozine” value was “equivalent to the insecticidal activity of pymetrozine”. In addition, the mortality at 100 mg/kg in [17] was found to be 100%.

For `COC(=O)Nc1nc2ccccc2[nH]1` [Carbendazim, reference compound], the inhibition of growth at 50 mg/kg in data set [1] was under 50%; in data set [2], under 50%; in data set [6], 100%; in [8] it was under 50%; in [12], 100%. Also, the inhibition at 50 mg/kg in [3] is under 50%; in [4] it was 100%; in data set [5] (setting [19]), under 50%; in [7], under 50%; in data set [9], 100%; in data set [10], 100%. Also, the inhibition at 50 mg/kg in data set [11] and in data set [13] was 100% in each case.

`N#Cc1c(Cl)c(Cl)c(Cl)c(C#N)c1Cl` [Chlorothalonil, reference compound]: the inhibition of growth at 50 mg/kg was 100% in data set [1]; 73.3% in [2]; under 50% in data set [6]; 100% in [8]; 86.4% in [12]. Besides, the inhibition at 50 mg/kg in [3] is 73.3%; in data set [4] it was under 50%; in data set [5] (setting [19]), 100%; in data set [7], 100%; in [9], 100%; in data set [10], 91.3%. In addition, the inhibition at 50 mg/kg worked out at 91.3% in data set [11] and 100% in [13].
